Measurements from patent US7704995B2 (Exelixis, Inc., priority 2003, dated 2010).
Like-named read-outs stand apart in the source and are kept apart here.

Target: T1, Chk1 (Homo sapiens, UniProt O14757)
T1 construct: purchased Upstate Biotechnology
T1 sequence (O14757 1-476): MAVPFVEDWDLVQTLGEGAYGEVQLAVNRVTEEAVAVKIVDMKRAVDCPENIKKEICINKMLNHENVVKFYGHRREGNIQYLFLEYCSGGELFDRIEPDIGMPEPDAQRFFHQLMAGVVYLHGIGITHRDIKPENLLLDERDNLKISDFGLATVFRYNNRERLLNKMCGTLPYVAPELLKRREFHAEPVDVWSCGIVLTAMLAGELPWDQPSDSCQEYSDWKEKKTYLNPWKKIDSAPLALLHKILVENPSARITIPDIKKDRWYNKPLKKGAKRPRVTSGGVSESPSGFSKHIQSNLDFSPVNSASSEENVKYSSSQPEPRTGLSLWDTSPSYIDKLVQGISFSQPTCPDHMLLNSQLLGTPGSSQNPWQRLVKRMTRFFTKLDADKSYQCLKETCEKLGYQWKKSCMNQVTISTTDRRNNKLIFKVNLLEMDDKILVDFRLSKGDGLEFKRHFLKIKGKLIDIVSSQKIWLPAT
Experiment: Chk1 kinase assay: incorporation of γ-33P ATP into immobilized myelin basic protein
Format: biochemical
Conditions: read-out: Chk1 IC50
Procedure, shortened: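 Chk1 (10 nM) or Chk2 (20 nM) phosphorylated plate-immobilized myelin basic protein for 1 h at room temperature in Hepes pH 7.6 buffer with MgCl2, DTT, 1% DMSO, γ-33P ATP plus 10 μM (Chk1) or 30 μM (Chk2) unlabeled ATP. Bound radioactivity counted by scintillation; IC50 determined, Ki derivable from IC50.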

[1] = Table 11, Chk1 only, class symbols A-D

Structure (SMILES) | IC50 (Table 11, Chk1 only) | IC50 [1] | other results
CN1CCCC(c2n[nH]c(-c3nc(-c4cccc(CO)c4)cnc3N)n2)C1 (centres unmarked) [Example 736, (3-{5-amino-6-[3-(1-methylpiperidin-3-yl)-1H-1,2,4-triazol-5-yl]pyrazin-2-yl}phenyl)methanol] | 1000 to 10000 nM |  | 
CNC(=O)c1nc(-c2cccc(C(=O)NCc3ccc(C(C)C)cc3)c2)cnc1N [Example 345, 3-amino-N-methyl-6-{3-[({[4-(1-methylethyl)phenyl]methyl}amino)carbonyl]phenyl}pyrazine-2-carboxamide] |  |  | IC50: 50 to 1000 nM
CNC(=O)c1nc(-c2cccc(CNC3CCc4c(Br)cccc43)c2)cnc1N (centres unmarked) [Example 492, 3-amino-6-(3-{[(4-bromo-2,3-dihydro-1H-inden-1-yl)amino]methyl}phenyl)-N-methylpyrazine-2-carboxamide] | < 50 nM |  | 
Nc1ncc(-c2cccc(C(=O)NCc3c(F)cccc3F)c2)nc1-c1nc([C@H]2CCCNC2)n[nH]1 [Example 827, 3-(5-amino-6-{3-[(3S)-piperidin-3-yl]-1H-1,2,4-triazol-5-yl}pyrazin-2-yl)-N-[(2,6-difluorophenyl)methyl]benzamide] |  | 50 to 1000 nM | 
Nc1ncc(-c2cccc(CNS(=O)(=O)c3ccc(Cl)cc3)c2)nc1C(=O)N[C@H]1CCCNC1 [Example 955, 3-amino-6-[3-({[(4-chlorophenyl)sulfonyl]amino}methyl)phenyl]-N-[(3S)-piperidin-3-yl]pyrazine-2-carboxamide] |  | < 50 nM | 
CNC(=O)c1nc(-c2cc(C(=O)N[C@@H]3CCNC3)cc(C(=O)N[C@@H]3CCc4ccccc43)c2)cnc1N [Example 797, 5-{5-amino-6-[(methylamino)carbonyl]pyrazin-2-yl}-N-[(1R)-2,3-dihydro-1H-inden-1-yl]-N′-[(3R)-pyrrolidin-3-yl]benzene-1,3-dicarboxamide] | 50 to 1000 nM |  | 
CNC(=O)c1nc(-c2cccc(C(=O)NCc3ccccc3F)c2)cnc1N [Example 289, 3-amino-6-[3-({[(2-fluorophenyl)methyl]amino}carbonyl)phenyl]-N-methylpyrazine-2-carboxamide] |  |  | IC50: 50 to 1000 nM
Cc1cccc(-c2cnc(N)c(C(=O)N[C@H]3CCCCNC3)n2)c1 [Example 974, 3-amino-N-[(3S)-azepan-3-yl]-6-(3-methylphenyl)pyrazine-2-carboxamide] |  | < 50 nM | 
CNC(=O)c1nc(-c2cccc(NC(=O)c3ccc(C#N)cc3)c2)cnc1N [Example 167, 3-amino-6-(3-{[(4-cyanophenyl)carbonyl]amino}phenyl)-N-methylpyrazine-2-carboxamide] |  |  | IC50: 50 to 1000 nM
Nc1ncc(-c2cccc(C(=O)N[C@H]3CCc4ccccc43)c2)nc1C(=O)N[C@H]1CCN(C(=O)c2ccncc2)C1 [Example 649, 3-amino-6-(3-{[(1S)-2,3-dihydro-1H-inden-1-ylamino]carbonyl}phenyl)-N-[(3S)-1-(pyridin-4-ylcarbonyl)pyrrolidin-3-yl]pyrazine-2-carboxamide] | ≥ 10000 nM |  | 
Nc1ncc(-c2cccc(C(=O)NCc3cc(F)cc(F)c3)c2)nc1C(=O)N[C@H]1CCCCNC1 [Example 1009, 3-amino-N-[(3S)-azepan-3-yl]-6-[3-({[(3,5-difluorophenyl)methyl]amino}carbonyl)phenyl]pyrazine-2-carboxamide] |  | < 50 nM | 
CNC(=O)c1nc(-c2cccc(C(=O)NCc3ccccc3-c3ccncc3)c2)cnc1N [Example 390, 3-amino-N-methyl-6-[3-({[(2-pyridin-4-ylphenyl)methyl]amino}carbonyl)phenyl]pyrazine-2-carboxamide] |  |  | IC50: 50 to 1000 nM
Nc1ncc(-c2cccc(CN[C@H]3CCc4ccccc43)c2)nc1C(=O)NCCCCO [Example 539, 3-amino-6-(3-{[(1S)-2,3-dihydro-1H-inden-1-ylamino]methyl}phenyl)-N-(4-hydroxybutyl)pyrazine-2-carboxamide] | 50 to 1000 nM |  | 
CNC(=O)c1nc(-c2cccc(C(=O)NCc3c(F)ccc(F)c3Cl)c2)cnc1N [Example 297, 3-amino-6-[3-({[(2-chloro-3,6-difluorophenyl)methyl]amino}carbonyl)phenyl]-N-methylpyrazine-2-carboxamide] |  |  | IC50: 50 to 1000 nM
CNC(=O)c1nc(-c2cccc(C(=O)NCc3cc(F)c(F)c(F)c3)c2)cnc1N [Example 316, 3-amino-N-methyl-6-[3-({[(3,4,5-trifluorophenyl)methyl]amino}carbonyl)phenyl]pyrazine-2-carboxamide] |  |  | IC50: 50 to 1000 nM
CCN(CC)CCOc1cccc(-c2cnc(N)c(C(=O)N[C@H]3CCCNC3)n2)c1 [Example 959, 3-amino-6-(3-{[2-(diethylamino)ethyl]oxy}phenyl)-N-[(3S)-piperidin-3-yl]pyrazine-2-carboxamide] |  | < 50 nM | 
CNC(=O)c1nc(-c2cccc(C(=O)N[C@H]3CCN(Cc4ccccc4)C3)c2)cnc1N [Example 196, 3-amino-N-methyl-6-[3-({[(3S)-1-(phenylmethyl)pyrrolidin-3-yl]amino}carbonyl)phenyl]pyrazine-2-carboxamide] |  |  | IC50: 50 to 1000 nM
CNC(=O)c1nc(-c2cccc(C(=O)NCc3ccc(F)c(F)c3)c2)cnc1N [Example 288, 3-amino-6-[3-({[(3,4-difluorophenyl)methyl]amino}carbonyl)phenyl]-N-methylpyrazine-2-carboxamide] |  |  | IC50: 50 to 1000 nM
CNC(=O)c1nc(-c2ccc(OC)c(C(=O)NCc3ccccc3)c2)cnc1N [Example 348, 3-amino-N-methyl-6-(4-(methyloxy)-3-{[(phenylmethyl)amino]carbonyl}phenyl)pyrazine-2-carboxamide] |  |  | IC50: 50 to 1000 nM
CCN1CCCC(NC(=O)c2nc(-c3cccc(C(=O)N[C@H]4CCc5ccccc54)c3)cnc2N)C1 (stereo partly drawn) [Example 730, 3-amino-6-(3-{[(1S)-2,3-dihydro-1H-inden-1-ylamino]carbonyl}phenyl)-N-(1-ethylpiperidin-3-yl)pyrazine-2-carboxamide] | 50 to 1000 nM |  | 
CNC(=O)c1nc(-c2cccc(CN[C@H]3CCc4c(F)cccc43)c2)cnc1N [Example 482, 3-amino-6-[3-({[(1S)-4-fluoro-2,3-dihydro-1H-inden-1-yl]amino}methyl)phenyl]-N-methylpyrazine-2-carboxamide] | < 50 nM |  | 

Continued, in another order:

IC50 (Table 11, Chk1 only) | IC50 [1] | Structure (SMILES) | other results
50 to 1000 nM |  | CNC(=O)c1nc(-c2cccc(CNc3cccc4ccccc34)c2)cnc1N [Example 448, 3-amino-N-methyl-6-{3-[(naphthalen-1-ylamino)methyl]phenyl}pyrazine-2-carboxamide] | 
50 to 1000 nM |  | Nc1ncc(-c2cccc(CO)c2)nc1C(=O)NNC(=O)Nc1ccccc1 [Example 572, 2-({3-amino-6-[3-(hydroxymethyl)phenyl]pyrazin-2-yl}carbonyl)-N-phenylhydrazinecarboxamide] | 
 | < 50 nM | COc1cccc(CNC(=O)c2cccc(-c3cnc(N)c(C(=O)N[C@H]4CCCNC4)n3)c2)c1 [Example 1039, 3-amino-6-[3-({[(3-methoxyphenyl)methyl]amino}carbonyl)phenyl]-N-[(3S)-piperidin-3-yl]pyrazine-2-carboxamide] | 
 | < 50 nM | Nc1ncc(-c2cccc(C(=O)NCc3ccc(OC(F)(F)F)cc3)c2)nc1C(=O)N[C@H]1CCCNC1 [Example 843, 3-amino-N-[(3S)-piperidin-3-yl]-6-(3-{[({4-[(trifluoromethyl)oxy]phenyl}methyl)amino]carbonyl}phenyl)pyrazine-2-carboxamide] | 
50 to 1000 nM |  | CN(C)C(=O)c1nc(-c2cccc(CN[C@H]3CCc4ccccc43)c2)cnc1N [Example 554, 3-amino-6-(3-{[(1S)-2,3-dihydro-1H-inden-1-ylamino]methyl}phenyl)-N,N-dimethylpyrazine-2-carboxamide] | 
≥ 10000 nM |  | COC(=O)[C@@H](NC(=O)c1nc(-c2cccc(C(=O)NCc3ccccc3)c2)cnc1N)[C@@H](C)O [Example 697, methyl N-{[3-amino-6-(3-{[(phenylmethyl)amino]carbonyl}phenyl)pyrazin-2-yl]carbonyl}threoninate] | 
 | < 50 nM | COc1ccc(CNC(=O)c2cccc(-c3cnc(N)c(C(=O)N[C@H]4CCCNC4)n3)c2)cc1 [Example 831, 3-amino-6-{3-[({[4-(methyloxy)phenyl]methyl}amino)carbonyl]phenyl}-N-[(3S)-piperidin-3-yl]pyrazine-2-carboxamide] | 
50 to 1000 nM |  | NC(=O)c1nc(-c2cccc(CN[C@H]3CCc4ccccc43)c2)cnc1N [Example 530, 3-amino-6-(3-{[(1S)-2,3-dihydro-1H-inden-1-ylamino]methyl}phenyl)pyrazine-2-carboxamide] | 
 | < 50 nM | Nc1ncc(-c2cccc(CNC(=O)c3ccco3)c2)nc1C(=O)N[C@H]1CCCNC1 [Example 934, 3-amino-6-(3-{[(furan-2-ylcarbonyl)amino]methyl}phenyl)-N-[(3S)-piperidin-3-yl]pyrazine-2-carboxamide] | 
 | < 50 nM | Nc1ncc(-c2cccc(C(=O)NCc3ccc(-c4ccccc4)cc3)c2)nc1C(=O)N[C@H]1CCCNC1 [Example 844, 3-amino-6-(3-{[(biphenyl-4-ylmethyl)amino]carbonyl}phenyl)-N-[(3S)-piperidin-3-yl]pyrazine-2-carboxamide] | 
 | < 50 nM | Nc1ncc(-c2cccc(C(=O)NCc3cc(Cl)ccc3F)c2)nc1C(=O)N[C@H]1CCCNC1 [Example 862, 3-amino-6-[3-({[(5-chloro-2-fluorophenyl)methyl]amino}carbonyl)phenyl]-N-[(3S)-piperidin-3-yl]pyrazine-2-carboxamide] | 
